This is an account of results in ChEMBL document CHEMBL1158928, “Antitumor agents, 118. The isolation and characterization of bruceanic acid A, its methyl ester, and the new bruceanic acids B, C, and D, from Brucea antidysenterica” (1990).

Structures are written as SMILES. Values after ≈ are worked out from the molar mass of the structure shown. Active and inactive are the calls of the source. The calls are words filed in the database; no cut-off is given here.

Assay [1] deals with HCT-8. The assay is described as follows: Cytotoxicity against human HCT8 cells. The settings on record: read-out: ED50 (the source's name). It is filed as functional.
Assay [2] concerns P388. The assay is described as follows: Cytotoxicity against mouse P388 cells. In kind it is functional. The settings on record: read-out: ED50 (the source's name).
The test system of assay [3] is A549. In words: Cytotoxicity against human A549 cells. It is filed as functional. The conditions noted are these: read-out: ED50 (the source's name).
Assay [4] concerns TE-671. The assay is described as follows: Cytotoxicity against human TE671 cells at 10 ug/ml. It is filed as functional, cell-based.
In assay [5] the test system is A549. In words: Cytotoxicity against human A549 cells at 10 ug/ml. In kind it is functional, cell-based.
Assay [6] has as its system KB. In words: Cytotoxicity against human KB cells at 10 ug/ml. In kind it is functional, cell-based.
Assay [7] relates to P388. In words: Cytotoxicity against mouse P388 cells at 10 ug/ml. In kind it is functional, cell-based.
The subject of assay [8] is HCT-8. The assay is described as follows: Cytotoxicity against human HCT8 cells at 10 ug/ml. In kind it is functional, cell-based.
Assay [9] concerns TE-671. In words: Cytotoxicity against human TE671 cells. It is filed as functional. The conditions noted are these: read-out: ED50 (the source's name).
Assay [10] relates to KB. In words: Cytotoxicity against human KB cells. The settings on record: read-out: ED50 (the source's name). It is filed as functional.

Turning to `COC(=O)[C@@]12OC[C@]34[C@H](CC(=O)[C@H](OC(=O)/C=C(\C)C(C)(C)O)[C@@H]13)C[C@@H](C(C)=O)[C@](C)(CC(=O)O)[C@H]4[C@@H](O)[C@@H]2O` [BRUCEANIC ACID D], the values for the EC50 in assay [1], in assay [2] and in assay [3] were 10 µg/mL (≈ 17.6 µM), 0.77 µg/mL (≈ 1.36 µM) and 10 µg/mL (≈ 17.6 µM), respectively.

For the compound `COC(=O)[C@@]12OC[C@]34[C@H](CC(=O)[C@H](OC(=O)c5ccccc5)[C@@H]13)C[C@@H](C(C)=O)[C@](C)(CC(=O)O)[C@H]4[C@@H](O)[C@@H]2O`, the result in assay [4], in [5], in assay [6], in assay [7] and in assay [8] was inactive.

On to `COC(=O)C[C@]1(C)[C@H]2[C@@H](O)[C@H](O)[C@]3(C(=O)OC)OC[C@@]24[C@H](CC(=O)[C@H](OC(=O)/C=C(\C)C(C)C)[C@@H]34)C[C@H]1C(C)=O`, for which the result in [4], in assay [5], in [6], in assay [7] and in assay [8] was inactive.

`COC(=O)[C@@]12OC[C@]34[C@H](CC(=O)[C@H](OC(=O)/C=C(\C)C(C)C)[C@@H]13)C[C@@H](C(C)=O)[C@](C)(CC(=O)O)[C@H]4[C@@H](O)[C@@H]2O` [BRUCEANIC ACID A]: the EC50 came out at 10 µg/mL (≈ 18.2 µM) in assay [1], 5.5 µg/mL (≈ 9.99 µM) in assay [9], 10 µg/mL (≈ 18.2 µM) in assay [3] and 4.16 µg/mL (≈ 7.56 µM) in assay [10].

As for `COC(=O)[C@@]12OC[C@]34[C@H](CC(=O)[C@H](OC(=O)/C=C(\C)C(C)(C)OC(C)=O)[C@@H]13)C[C@@H](C(C)=O)[C@](C)(CC(=O)O)[C@H]4[C@@H](O)[C@@H]2O`, the result in assay [4], in assay [5], in [6], in [7] and in [8] was inactive.
